Results published in patent US12569470B2, “Vasodilator and use thereof” (Bioradical Research Institute Corp., priority 2019, dated 2026).

Experiments:
[1] = NO-eliminating ability by ESR with NO donor NOC-7 and Carboxy-PTIO
Description: It was examined whether the vasodilator of the present invention has NO-eliminating ability. Specifically, as to the NO generation reaction, NOC-7 of NO donor was used to examine whether the NO concentration is reduced in the presence of BisEP-C3. First, 20 μl of a BisEp-C3 solution was added to 140 μl of a phosphate buffer solution (pH 7.4) having a concentration of […] so as to achieve a predetermined concentration (0, 25, 50, 100, 200, 400, or 600 μmol/1), and further 20 μl of a spin-trapping agent (100 μmol/1), Carboxy-PTIO(2-(4-Carboxyphenyl)-4, 4, 5, 5-tetramethylimidazoline-1-oxyl-3-oxide, sodium salt, final concentration 10 μmol/1) solution and 20 μl of a NO donor solution (10 mmol/1NOC-7 (1-Hydroxy-2-oxo-3-(N-methyl-3-aminopropyl)-3-methyl-1-triazene, final concentration […])) were added and mixed. The NO donor solution was prepared using a sodium hydroxide solution having a concentration of 0.1 mmol/1. Then, after the mixing, the mixture was incubated at room temperature for 3 minutes, and the obtained reaction solution was measured under the following ESR measurement conditions 2. Then, the proportion of the decrease in the signal intensity was calculated as the NO-eliminating ability with the signal intensity of the sample with no BisEP-C3 (0 μmol/1) being 100%.
ESR Measurement Conditions 2 […]

[2] = system: blood vessel of the mesentery; assay: LPS-induced vascular disorder of the mesentery, bleeding and leukocyte rolling; type: in vivo, rat
Source text: Eight-week-old or older female rats (Wistar, body weight: approximately 200 g, n=1) were anesthetized by subcutaneous administration of urethane (1.75 g/kg body weight). The rats were then opened and fixed on a fixing table in such a manner that the mesentery of the rats was observable. After the fixing, the fixing table was placed under a microscope (Nikon OPTIphoto, produced by Nikon Corporation) so that the mesentery could be observed. In addition, a catheter was placed in the groin vein of the rat.
1μg/ml of lipopolysaccharide (LPS) (produced by Sigma-Aldrich Co., Ltd.) derived from Pseudomonas aeruginosa (ATCC27316) was added dropwise once (20 μl, 20 ng/sight) and allowed to stand for 30 minutes. Next, a saline solution containing BisEP-C3 prepared in the same manner as in Example 9 was rapidly administered intravenously via the catheter so as to be 1 mg/kg body weight. After the intravenous administration, the saline solution was administered continuously so as to be 1 mg/kg body weight per hour (0.15 ml/hour). […] In the obtained photograph, the area of the region where bleeding occurred (bleeding area) was detected based on the number of pixels, and then the proportion of the area (bleeding area proportion) occupied per visual field was calculated. […]

[3] = system: rat auricular subcutaneous blood vessel; assay: Vasodilation in vivo, blood vessel diameter after intravenous administration
Description: Eight-week-old or older female rats (Wistar, body weight: approximately 200 g, n=1) were anesthetized by subcutaneous administration of urethane so as to be […] body weight. The hair of the auricles of the rats was then removed and the rats were fixed on a fixing table. After the fixing, the fixing table was placed under a microscope (Nikon OPTIphoto, produced by Nikon Corporation). In addition, a catheter was placed in the groin vein of the rat.
BisEP-C3 was dissolved in a saline solution to achieve a concentration of 3 mg/ml. The resulting saline solution containing BisEP-C3 was administered intravenously via the catheter so as to be 3 mg/kg body weight. Then, the hemodynamic course of the rat auricular subcutaneous blood vessel was photographed and recorded using a microscope at a predetermined period (30, 60, 120 or 180 minutes) before and after the administration.
The obtained images were classified into three blood vessel thicknesses (thick: 35-45 μm, medium: 15-20 μm, thin: 7-9 μm) based on the diameter of the blood vessel before administration. […] Further, for each selected site, the relative blood vessel diameter was calculated after the measurement of the blood vessel diameter, with the blood vessel diameter before administration being a reference (1). […] As a control, the blood vessel diameter was calculated in the same manner except that the saline solution was administered.

In the case of `CCN1N=C(C)/C(=C\C=C\c2c(C)nn(CC)c2O)C1=O` [BisEp-C3, 2,4-dihydro-4-[3-(1-ethyl-5-hydroxy-3-methyl-1H-pyrazol-4-yl)-2-propen-1-ylidene]-2-ethyl-5-methyl-3H-pyrazol-3-one], the NO-eliminating ability ([1]; 0, 25, 50, 100, 200, 400, or 600 μmol/1, 3 minutes at room temperature, FIG. 14) is reported as “eliminated NO in a concentration-dependent manner”, the “superoxide decrease compared with NO-eliminating ability” value ([1]; equal concentration, comparison with the superoxide test) is reported as “the proportion of the decrease in the production amount of superoxide is larger than the NO-eliminating ability” and the “bleeding area and bleeding area proportion” value ([2]; LPS instillation, 1 mg/kg intravenously then 1 mg/kg per hour, up to 180 minutes, FIGS. 12 and 13) is reported as “no bleeding was observed”. For the same molecule, the “rolling phenomena of leukocytes” value ([2]; after LPS instillation, compared to the control) was “a large number of rolling phenomena of leukocytes were observed”, the “relative value of the blood vessel diameter” value ([3]; 3 mg/kg body weight intravenously, 30, 60, 120 or 180 minutes, versus saline control, FIG. 10) was “dilated at any time after administration as compared to the control” and the “severity of dilatation by blood vessel size” value ([3]; thick 35-45 μm, medium 15-20 μm, thin 7-9 μm, 3 mg/kg intravenously) was “remarkably observed in the smaller blood vessels”.
